The NIST ThermoML archive (doi:10.1016/j.jct.2011.11.032)
Numbers after ± are expanded uncertainties.

Assay: molar enthalpy of vaporization or sublimation
Details: 298.15 K; Liquid; Static calorimetry

SMILES | molar enthalpy [kcal/mol]
COc1cccc(OC)n1 [2,6-dimethoxypyridine] | 12.9 ± 0.239
COc1ccccn1 [2-methoxypyridine] | 10.8 ± 0.311
COc1ccncc1 [4-methoxypyridine] | 13.7 ± 0.311
